Reference: US9408854B2, “Methods and systems for pharmacogenomic treatment of cardiovascular conditions” (ROSTAQUO S.P.A., priority 2009, dated 2016)

Tests used:
hypertensive patients [1] = assay: Two separate studies: blood pressure change with HCTZ, Losartan and rostafuroxin in patients carrying profile 4, 8 or 9; type: in vivo, human; settings: preliminary data
Source text: In particular, individuals carrying profile 4 show a modification in blood pressure of: −12.3±1.5 mmHg with HCTZ; −11.3±1.7 with Losartan and −18.74±1.8 mmHg with rostafuroxin; individuals with profile 8 show the a decrease in blood pressure of −11.3±1.2 with HCTZ; −11.6±1.3 with Losartan and −15.2±1.5 mmHg with rostafuroxin; individuals with profile 9 show the a decrease in blood pressure of −11.9±1.2 with HCTZ; −11.4±1.4 with Losartan and −15.2±1.5 mmHg with rostafuroxin.

[2] = Maximal tolerated dose without any effects (NOAEL) in animals; settings: in vivo, read-out: maximal tolerated dose that does not produce any effects (NOAEL)
Na—K Pump and cSrc [3] = assay: In vitro correction of the effect of mutated adducin or ouabain on Na-K pump and cSrc; type: biochemical; settings: picomolar concentrations in vitro
Na—K Pump and cSrc [4] = assay: Correction of the effect of mutated adducin or ouabain on Na-K pump and cSrc in animals; type: in vivo; settings: nanomoles doses in animals
hypertensive patients [5] = assay: Pharmacogenomic study: change of office systolic blood pressure (DSBP5_0) after 5 weeks of rostafuroxin vs placebo, by genotype; type: in vivo, human; settings: 0.05 to 0.50 mg/day vs 1.5 to 5 mg/day

C[C@]12CC[C@H](O)C[C@H]1CC[C@@H]1[C@@H]2CC[C@]2(C)[C@@](O)(c3ccoc3)CC[C@]12O [rostafuroxin, 17β-(3-furyl)-5β-androstane-3β,14β,17α-triol]
modification in blood pressure (hypertensive patients [1]; individuals carrying profile 4): −18.74±1.8 mmHg
decrease in blood pressure (hypertensive patients [1]; individuals with profile 8): −15.2±1.5 mmHg
decrease in blood pressure (hypertensive patients [1]; individuals with profile 9): −15.2±1.5 mmHg
NOAEL [2]: 100 mg/kg
correction of the effect of mutated adducin or ouabain on Na—K Pump and cSrc (Na—K Pump and cSrc [3]): able to selectively correct the effect of mutated adducin or ouabain on Na—K Pump and cSrc, without blocking the effect of wild adducin
correction of the effect of mutated adducin or ouabain on Na—K Pump and cSrc (Na—K Pump and cSrc [4]): able to selectively correct the effect of mutated adducin or ouabain on Na—K Pump and cSrc, without blocking the effect of wild adducin
drop of night blood pressure, low doses vs high doses (hypertensive patients [5]): relevantly higher drop of night blood pressure as compared to high doses
